Test results as given in US9675614B2, “PRMT5 inhibitors and uses thereof” (Epizyme, Inc., priority 2012, dated 2017).

Molecular target: PRMT5/MEP50 (Homo sapiens (Human), UniProt O14744)
Experiment: PRMT5 Biochemical Assay (PRMT5/MEP50 enzyme assay on peptide substrate, 3H-SAM Flashplate)
Details: PRMT5/MEP50 biochemical assay; read-out: Biochemical IC50
From the text: S-adenosylmethionine (SAM), S-adenosylhomocysteine (SAH), bicine, KCl, Tween20, dimethylsulfoxide (DMSO), bovine skin gelatin (BSG), and Tris(2-carboxyethyl)phosphine hydrochloride solution (TCEP) were purchased from Sigma-Aldrich at the highest level of purity possible. ^3H-SAM was purchase from American Radiolabeled Chemicals with a specific activity of 80 Ci/mmol. 384-well streptavidin Flashplates were purchased from PerkinElmer.
Peptide representative of human histone H4 residues 1-15 was synthesized with a C-terminal linker-affinity tag motif and a C-terminal amide cap by 21st Century Biochemicals. […] The sequence was Ac-[…][K-Biot]amide (SEQ ID NO.:3).
Full-length human MEP50 (NM_024102) clone was amplified from a human testis cDNA library incorporating a 5′ sequence encoding a 6-histidine tag (MHHHHHH) (SEQ ID NO.:5) fused directly to Arg 2 of MEP50. The amplified genes were subcloned into pENTR/D/TEV (Life Technologies) and subsequently transferred by Gateway™ attL×attR recombination to pDEST8 baculvirus expression vector (Life Technologies).
Recombinant baculovirus and Baculovirus-Infected Insect Cells (BIIC) were generated according to Bac-to-Bac kit instructions (Life Technologies) and Wasilko, 2006, respectively. Protein over-expression was accomplished by infecting exponentially growing Spodoptera frugiperda (SF9) cell culture at 1.2×10^6 cell/ml with a 5000 fold dilution of BIIC stock. Infections were carried out at 27° C. for 72 hours, harvested by centrifugation, and stored at −80° C. for purification.
Flag-PRMT5/6His-MeP50 was eluted with 300 mM Imidazole in the same buffer. […] Reference: Wasilko, D. J. and S. E. Lee: “TIPS: titerless infected-cells preservation and scale-up” Bioprocess J., 5 (2006), pp. 29-32.
General Procedure for PRMT5/MEP50 Enzyme Assays on Peptide Substrates.
The assays were all performed in a buffer consisting of 20 mM Bicine (pH=7.6), 1 mM TCEP, 0.005% BSG, and 0.002% Tween20, prepared on the day of use. Compounds in 100% DMSO (1 ul) were spotted into a polypropylene 384-well V-bottom plates (Greiner) using a Platemate Plus outfitted with a 384-channel head (Thermo Scientific). DMSO (1 ul) was added to Columns 11, 12, 23, 24, rows A-H for the maximum signal control and 1 ul of SAH, a known product and inhibitor of PRMT5/MEP50, was added to columns 11, 12, 23, 24, rows I-P for the minimum signal control. A cocktail (40 ul) containing the PRMT5/MEP50 enzyme and the peptide was added by Multidrop Combi (Thermo-Fisher). The compounds were allowed to incubate with PRMT5/MEP50 for 30 min at 25 degrees Celsius, then a cocktail (10 ul) containing ^3H-SAM was added to initiate the reaction (final volume=51 ul). The final concentrations of the components were as follows: PRMT5/MEP50 was 4 nM, ^3H-SAM was 75 nM, peptide was 40 nM, SAH in the minimum signal control wells was 100 uM, and the DMSO concentration was 1%. The assays were stopped by the addition of non-radioactive SAM (10 ul) to a final concentration of 600 uM, which dilutes the ^3H-SAM to a level where its incorporation into the peptide substrate is no longer detectable. 50 ul of the reaction in the 384-well polypropylene plate was then transferred to a 384-well Flashplate and the biotinylated peptides were allowed to bind to the streptavidin surface for at least 1 hour before being washed three times with 0.1% Tween20 in a Biotek ELx405 plate washer. The plates were then read in a PerkinElmer TopCount plate reader to measure the quantity of ^3H-labeled peptide bound to the Flashplate surface, measured as disintegrations per minute (dpm) or alternatively, referred to as counts per minute (cpm).
[formula] Where dpm=disintegrations per minute, cmpd=signal in assay well, and min and max are the respective minimum and maximum signal controls.
[formula] Where top and bottom are the normally allowed to float, but may be fixed at 100 or 0 respectively in a 3-parameter fit.

PRMT5/MEP50, sequence (O14744 other isoform, or with tags, fused parts or gaps): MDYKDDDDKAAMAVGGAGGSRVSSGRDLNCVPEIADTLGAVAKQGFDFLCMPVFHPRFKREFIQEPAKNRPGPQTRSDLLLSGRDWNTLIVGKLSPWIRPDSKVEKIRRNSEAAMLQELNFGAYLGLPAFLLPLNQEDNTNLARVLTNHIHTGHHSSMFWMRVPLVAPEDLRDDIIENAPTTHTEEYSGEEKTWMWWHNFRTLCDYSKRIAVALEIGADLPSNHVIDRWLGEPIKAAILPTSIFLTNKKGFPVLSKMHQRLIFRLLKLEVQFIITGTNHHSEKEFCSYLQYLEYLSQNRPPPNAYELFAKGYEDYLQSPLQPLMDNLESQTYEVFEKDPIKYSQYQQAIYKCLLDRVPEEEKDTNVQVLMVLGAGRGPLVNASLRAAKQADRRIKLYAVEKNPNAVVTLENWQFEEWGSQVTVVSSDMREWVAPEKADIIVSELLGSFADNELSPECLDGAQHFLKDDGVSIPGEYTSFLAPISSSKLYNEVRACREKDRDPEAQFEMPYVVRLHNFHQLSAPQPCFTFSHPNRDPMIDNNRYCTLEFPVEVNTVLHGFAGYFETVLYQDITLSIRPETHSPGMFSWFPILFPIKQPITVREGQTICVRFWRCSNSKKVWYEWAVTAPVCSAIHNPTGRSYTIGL
PRMT5/MEP50, sequence (Q9BQA1 other isoform, or with tags, fused parts or gaps partner): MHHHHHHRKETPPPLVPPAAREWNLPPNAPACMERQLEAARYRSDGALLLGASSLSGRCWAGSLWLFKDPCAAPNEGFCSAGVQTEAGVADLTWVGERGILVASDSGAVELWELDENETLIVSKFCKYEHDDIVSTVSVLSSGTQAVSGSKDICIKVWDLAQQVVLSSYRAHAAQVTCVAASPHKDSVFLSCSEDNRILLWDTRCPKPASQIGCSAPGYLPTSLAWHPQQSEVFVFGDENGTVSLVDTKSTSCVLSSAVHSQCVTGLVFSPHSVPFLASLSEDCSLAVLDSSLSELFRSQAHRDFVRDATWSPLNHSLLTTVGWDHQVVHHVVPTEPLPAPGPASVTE

| SMILES | IC50 [µM] |
| --- | --- |
| O=C(O)CCCN1CCN(Cc2cccc(C(=O)NCC(O)CN3CCc4ccccc4C3)c2)CC1 (stereo not drawn) [Compound 158] | < 0.1 |
| CNC(=O)CNCc1cccc(C(=O)NCC(O)CN2CCc3ccccc3C2)c1 (stereo not drawn) [Compound 117] | 0.101 to 1 |
| COc1ccc(NC2CCOCC2)cc1C(=O)NCC(O)CN1CCc2ccccc2C1 (stereo not drawn) [Compound 77] | < 0.1 |
| CN1CCC(Oc2ccc(C(=O)NCC(O)CN3CCc4ccccc4C3)cc2)C1 (stereo not drawn) [Compound 177] | < 0.1 |
| CN(C)C(=O)CN1CCN(Cc2cccc(C(=O)NCC(O)CN3CCc4ccccc4C3)c2)CC1 (stereo not drawn) [Compound 174] | < 0.1 |
| O=C(NCC(O)CN1CCc2ccccc2C1)c1cccc(CNC2CCOCC2)c1 (stereo not drawn) [Compound 15, N-(3-(3,4-dihydroisoquinolin-2(1H)-yl)-2-hydroxypropyl)-3-(((tetrahydro-2H-pyran-4-yl)amino)methyl)benzamide] | < 0.1 |
| O=C(NC[C@H](O)CN1CCc2ccccc2C1)c1ccnc(OC2CCN(CC(F)(F)F)CC2)c1 [Compound 203] | < 0.1 |
| O=C(NC[C@H](O)CN1CCc2ccccc2C1)c1ccnc(NCC2CC2)c1 [Compound 187] | < 0.1 |
| O=C(NCC(O)CN1CCc2ccccc2C1)c1cccc(NCCN2CCOCC2)c1 (stereo not drawn) [Compound 61] | 0.101 to 1 |
| O=C(O)CN1CCN(Cc2cccc(C(=O)NCC(O)CN3CCc4ccccc4C3)c2)CC1 (stereo not drawn) [Compound 157] | 0.101 to 1 |
| O=C(NCC(O)CN1CCc2ccccc2C1)c1ccc(NC2CCN(CC(F)(F)F)CC2)cc1 (stereo not drawn) [Compound 128] | < 0.1 |
| O=C(NCC(O)CN1CCc2ccccc2C1)c1cccc(CN2CCN(CCO)CC2)c1 (stereo not drawn) [Compound 113] | < 0.1 |
| O=C(NCC(O)CN1CCc2ccccc2C1)c1cccc(-c2ccccn2)c1 (stereo not drawn) [Compound 1, N-(3-(3,4-dihydroisoquinolin-2(1H)-yl)-2-hydroxypropyl)-3-(pyridin-2-yl)benzamide] | < 0.1 |
| O=C(NCC(O)CN1CCc2ccccc2C1)c1cccc(CN2CCN(CC(F)(F)F)CC2)c1 (stereo not drawn) [Compound 92] | < 0.1 |
| O=C(NCC(O)CN1CCc2ccccc2C1)c1cc(F)cc(NC2CCOCC2)c1 (stereo not drawn) [Compound 78] | < 0.1 |
| O=C(NCC(O)CN1CCc2ccccc2C1)c1cccc(OCCN2CCOCC2)c1 (stereo not drawn) [Compound 133] | < 0.1 |
| CN1CCC(Nc2cccc(C(=O)NCC(O)CN3CCc4ccccc4C3)c2)CC1 (stereo not drawn) [Compound 123] | < 0.1 |
| Cn1ccc(C(=O)NCC(O)CN2CCc3ccccc3C2)n1 (stereo not drawn) [Compound 149] | 0.101 to 1 |
| O=C(NC[C@H](O)CN1CCc2ccccc2C1)c1cc(NC2CCN(CC(F)(F)F)C2)ncn1 (stereo partly drawn) [Compound 182] | < 0.1 |

| SMILES | IC50 [µM] |
| --- | --- |
| O=C(NCC(O)CN1CCc2ccccc2C1)c1cccc(N2CCOCC2)c1 (stereo not drawn) [Compound 14, N-(3-(3,4-dihydroisoquinolin-2(1H)-yl)-2-hydroxypropyl)-3-morpholinobenzamide] | < 0.1 |
| O=C(NCC(O)CN1CCc2ccccc2C1)c1cccc(CN2CCNCC2)c1 (stereo not drawn) [Compound 29] | < 0.1 |
| CCN(c1cccc(C(=O)NCC(O)CN2CCc3ccccc3C2)c1C)C1CCOCC1 (stereo not drawn) [Compound 41] | < 0.1 |
| O=C(NCC(O)CN1CCc2ccccc2C1)c1ccc(NC2CCOCC2)cc1 (stereo not drawn) [Compound 66] | < 0.1 |
| COc1cc(CN2CCN(C)CC2)cc(C(=O)NCC(O)CN2CCc3ccccc3C2)c1 (stereo not drawn) [Compound 160] | < 0.1 |
| O=C(NCC(O)CN1CCc2ccccc2C1)c1ccc(-n2cncn2)cc1 (stereo not drawn) [Compound 110] | < 0.1 |
| COCCNc1cccc(C(=O)NCC(O)CN2CCc3ccccc3C2)c1 (stereo not drawn) [Compound 72] | 0.101 to 1 |
| O=C(NCC(O)CN1CCc2ccccc2C1)c1cccc(NCCCO)c1 (stereo not drawn) [Compound 87] | 1 to 10 |
| O=C(NCC(O)CN1CCc2ccccc2C1)c1ccc(OC2CCN(CC(F)(F)F)CC2)cc1 (stereo not drawn) [Compound 109] | < 0.1 |
| O=C(NC[C@H](O)CN1CCc2ccccc2C1)c1cccc(-c2ccccn2)c1 [Compound 20] | < 0.1 |
| O=C(NC[C@H](O)CN1CCc2ccccc2C1)c1cc(NC2CCNCC2)ncn1 [Compound 180] | < 0.1 |
| CC(C)N1CCC(Nc2ccc(C(=O)NCC(O)CN3CCc4ccccc4C3)cc2)CC1 (stereo not drawn) [Compound 140] | < 0.1 |
| O=C(NCC(O)CN1CCc2ccccc2C1)c1ccc(F)c(NC2CCOCC2)c1 (stereo not drawn) [Compound 65] | < 0.1 |
| CN1CCC(N(C)c2cccc(C(=O)NCC(O)CN3CCc4ccccc4C3)c2)C1 (stereo not drawn) [Compound 132] | < 0.1 |
| Cc1ccc(NC2CCOCC2)cc1C(=O)NCC(O)CN1CCc2ccccc2C1 (stereo not drawn) [Compound 95] | 0.101 to 1 |
| O=C(NCC(O)CN1CCc2ccccc2C1)c1ccc(NC2CCOC2)cc1 (stereo not drawn) [Compound 129] | < 0.1 |
| O=C(NCC(O)CN1CCc2ccccc2C1)c1cccc(C2CCNC2)c1 (stereo not drawn) [Compound 37] | < 0.1 |
| O=C(NC[C@H](O)CN1CCc2ccccc2C1)c1ccnc(NC2CCOCC2)c1 [Compound 192] | < 0.1 |

Continued, values first:

| IC50 [µM] | SMILES |
| --- | --- |
| < 0.1 | O=C(NC[C@@H](O)CN1CCc2ccccc2C1)c1ccc2ncccc2c1 [Compound 218] |
| < 0.1 | CC(=O)N(C)CCNc1cc(C(=O)NC[C@H](O)CN2CCc3ccccc3C2)ccn1 [Compound 315] |
| < 0.1 | CS(=O)(=O)N1CCC(Oc2cncc(C(=O)NC[C@H](O)CN3CCc4ccccc4C3)c2)CC1 [Compound 290] |
| < 0.1 | CC(=O)N(C)CCN(C)c1cc(C(=O)NC[C@H](O)CN2CCc3ccccc3C2)ccn1 [Compound 291] |
| < 0.1 | CS(=O)(=O)N1CCC(Nc2cncc(C(=O)NC[C@H](O)CN3CCc4ccccc4C3)c2)CC1 [Compound 301] |
| < 0.1 | Cc1ccc2cc(C(=O)NC[C@@H](O)CN3CCc4ccccc4C3)ccc2n1 [Compound 219, (R)—N-(3-(3,4-dihydroisoquinolin-2(1H)-yl)-2-hydroxypropyl)-2-methylquinoline-6-carboxamide] |
| < 0.1 | O=C(NC[C@H](O)CN1CCc2ccccc2C1)c1ccnc(NC2CCN(CC(F)(F)F)CC2)c1 [Compound 224] |
| < 0.1 | CS(=O)(=O)N1CCC(Nc2cc(C(=O)NC[C@H](O)CN3CCc4ccccc4C3)ccn2)C1 (stereo partly drawn) [Compound 227] |
| < 0.1 | CN1CCN(Cc2cccc(C(=O)NCC(O)CN3CCc4ccccc4C3)c2)CC1CO (stereo not drawn) [Compound 253] |
| 0.101 to 1 | O=C(NC[C@H](O)CN1CCc2ccccc2C1)c1cc(OC2CCN(CC(F)(F)F)CC2)ncn1 [Compound 285] |
| < 0.1 | O=C(NC[C@H](O)CN1CCc2ccccc2C1)c1cnc2ccccc2c1 [Compound 317] |
| < 0.1 | O=C(NC[C@H](O)CN1CCc2ccccc2C1)c1ccc2c(c1)CCO2 [Compound 243] |
| < 0.1 | CNCCNc1cc(C(=O)NC[C@H](O)CN2CCc3ccccc3C2)ccn1 [Compound 314] |
| < 0.1 | Cc1c(NC2CCOCC2)ncnc1C(=O)NC[C@H](O)CN1CCc2ccccc2C1 [Compound 231] |
| < 0.1 | O=C(NC[C@H](O)CN1CCc2ccccc2C1)c1cncc(NC2CCOC2)c1 (stereo partly drawn) [Compound 211] |
| < 0.1 | O=C(NC[C@H](O)CN1CCc2ccccc2C1)c1ccnc(OC2CCOCC2)c1 [Compound 323] |
| < 0.1 | O=C(NC[C@H](O)CN1CCc2ccccc2C1)c1ccc2ncsc2c1 [Compound 273] |
| < 0.1 | CC(=O)N1CCC(Nc2cc(C(=O)NC[C@H](O)CN3CCc4ccccc4C3)ncn2)C1 (stereo partly drawn) [Compound 210] |
| < 0.1 | Cc1cnc(NC2CCOC2)cc1C(=O)NC[C@H](O)CN1CCc2ccccc2C1 (stereo partly drawn) [Compound 308] |
| 0.101 to 1 | O=C(NC[C@H](O)CN1CCc2ccccc2C1)c1c[nH]c2ccccc12 [Compound 240] |
